Assay results from paper doi:10.1101/2025.07.21.666047v1 (biorxiv, 2025).

How the values were obtained:
[1] = target: recombinant human CD28 protein (extracellular domain, His-tagged) (Homo sapiens, UniProt P10747); test: spectral shift; assay type: binding
[2] = target: CD28:B7.1 (immobilized CD28 and biotinylated B7.1) (Homo sapiens, UniProt P10747); test: competitive ELISA, chemiluminescent; assay type: binding
Chain of CD28:B7.1 (immobilized CD28 and biotinylated B7.1) (P10747 19-152 limits assumed): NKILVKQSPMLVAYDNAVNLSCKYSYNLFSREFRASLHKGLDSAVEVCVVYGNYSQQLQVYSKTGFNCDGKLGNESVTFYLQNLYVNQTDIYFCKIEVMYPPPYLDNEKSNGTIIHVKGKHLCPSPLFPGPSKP

Chain of recombinant human CD28 protein (extracellular domain, His-tagged) (P10747 19-152): as the sequence (P10747 19-152 limits assumed) above

SMILES	Kd [1]	IC50 [2]
COc1ccc(C2CC(C)N(CC(=O)NCC(F)(F)F)C2)cc1 (centres unmarked) [Z3889890124]	49.5 ± 15.3 µM	–
NC(=O)c1ccc(N2CCN(C(=O)c3ncc4n3CCCC4)CC2)cc1 [Z2770993038]	43.3 ± 16.4 µM	32.9 ± 5.74 µM
CC(C)OC1CCCN(C(=O)c2ccc(-c3nn[nH]n3)s2)C1 (centres unmarked) [Z4390463985]	45.8 ± 12.1 µM	56.3 ± 11.2 µM
